Compound: *c1ccc(Cc2ccc(N3C(=O)c4cc(-c5ccc(C(C)(C)C)cc5)c(-c5cc6c(cc5-c5ccc(C(C)(C)C)cc5)C(=O)N(*)C6=O)cc4C3=O)cc2)cc1 (repeat unit)
- glass transition temperature: 360.00 °C

Compound: *c1cc(C(=O)Nc2ccc(-c3nnc(*)o3)cc2)cc(N2C(=O)c3ccccc3C2=O)c1 (repeat unit)
- glass transition temperature: 324.00 °C

Compound: *CCNC(=O)c1ccc(C(=O)N*)c(Oc2ccccc2)c1 (repeat unit)
- glass transition temperature: 164.00 °C

Compound: *c1cccc(C(=O)Nc2ccc(Oc3ccc(-c4ccc(Oc5ccc(NC(=O)c6cccc(N7C(=O)c8ccc(-c9ccc%10c(c9)C(=O)N(*)C%10=O)cc8C7=O)c6)cc5)cc4)cc3)cc2)c1 (repeat unit)
- glass transition temperature: 270.00 °C

Compound: *CCCCOC(=O)Nc1ccc(C)c(NC(=O)OCCCCn2c3ccccc3c3cc(/C=C(\C#N)C(=O)OCCCCCCOC(=O)/C(C#N)=C/c4ccc5c(c4)c4ccccc4n5*)ccc32)c1 (repeat unit)
- glass transition temperature: 117.00 °C

Compound: *Nc1cc(NC(=O)c2ccc(C(*)=O)cc2)cc(C(=O)OC(c2ccccc2)c2ccccc2)c1 (repeat unit)
- glass transition temperature: 217.00 °C

Compound: *CCCCCCOc1ccc(C(=O)N(C(=O)c2ccc(O*)cc2)c2cc(C)cc(C)c2)cc1 (repeat unit)
- glass transition temperature: 75.00 °C

Compound: *Oc1ccc(CC(NC(=O)CCc2ccc(OC(=O)COCCOCC(*)=O)cc2)C(=O)OCc2ccccc2)cc1 (repeat unit)
- glass transition temperature: 55.00 °C

Compound: *Oc1ccc(C(c2ccccc2)(c2ccccc2)c2ccc(OC(=O)c3ccc(C(*)=O)cc3)cc2)cc1 (repeat unit)
- glass transition temperature: 210.00 °C

Compound: *Oc1ccc(C(C)c2ccc(OC(*)=S)cc2)cc1 (repeat unit)
- glass transition temperature: 107.00 °C

Compound: *Oc1ccc(CC(NC(=O)CCc2ccc(OC(=O)CCCCCCC(*)=O)cc2)C(=O)OCc2ccccc2)cc1 (repeat unit)
- glass transition temperature: 47.00 °C

Compound: *c1ccc2c(c1)C(=O)N(c1c(C(C)C)cc(C(c3ccccc3)(c3cc(C(C)C)c(N4C(=O)c5ccc(C(*)(C(F)(F)F)C(F)(F)F)cc5C4=O)c(C(C)C)c3)C(F)(F)F)cc1C(C)C)C2=O (repeat unit)
- glass transition temperature: 274.00 °C

Compound: *C(=O)Nc1ccc(C(c2ccc(NC(=O)c3ccc4c(c3)C(=O)N(c3ccc(-c5ccc(N6C(=O)c7ccc(*)cc7C6=O)c(OC)c5)cc3OC)C4=O)cc2)(C(F)(F)F)C(F)(F)F)cc1 (repeat unit)
- glass transition temperature: 250.00 °C

Compound: *CC(*)C(=O)OCCCSCCC#N (repeat unit)
- glass transition temperature: -58.00 °C

Compound: *Nc1ccc(NC(=O)c2ccc(P(=O)(c3ccccc3)c3ccc(C(*)=O)cc3)cc2)cc1 (repeat unit)
- glass transition temperature: 252.00 °C

Compound: *CC(=O)C(*)C (repeat unit)
- glass transition temperature: 23.00 °C

Compound: *c1cccc(P(=O)(c2ccccc2)c2cccc(-n3c(=O)c4cc5c(=O)n(*)c(=O)c5c(-c5ccccc5)c4c3=O)c2)c1 (repeat unit)
- glass transition temperature: 325.00 °C

Compound: *Oc1ccc(C(=O)c2ccc(C(=O)c3ccc(Oc4ccc(Cc5ccc(*)cc5)cc4)cc3)cc2)cc1 (repeat unit)
- glass transition temperature: 120.00 °C

Compound: *CCC(=O)Nc1ccc(Cc2ccc(NC(=O)CCN3C(=O)c4ccc(C(=O)c5ccc6c(c5)C(=O)N(*)C6=O)cc4C3=O)cc2)cc1 (repeat unit)
- glass transition temperature: 221.00 °C

Compound: *CC(*)(C)C(=O)OCCc1ccc(/N=N/c2ccccc2)cc1 (repeat unit)
- glass transition temperature: 80.00 °C

Compound: *Oc1ccc(OC(=O)c2ccc(-c3ccc(C(*)=O)cc3)cc2-c2ccccc2)cc1C(C)(C)c1ccccc1 (repeat unit)
- glass transition temperature: 146.00 °C

Compound: *NNC(=O)/C=C/C(=O)Nc1cccc(/C=C2\CCC/C(=C\c3cccc(NC(=O)/C=C/C(*)=O)c3)C2=O)c1 (repeat unit)
- glass transition temperature: 238.40 °C

Compound: *c1ccc(Oc2cccc(Oc3ccc(N4C(=O)c5ccc(Oc6ccc(Sc7ccc(Oc8ccc9c(c8)C(=O)N(*)C9=O)cc7)cc6)cc5C4=O)cc3)c2)cc1 (repeat unit)
- glass transition temperature: 178.00 °C

Compound: *Oc1c(Br)cc(C(C)(C)c2cc(Br)c(OC(*)=O)c(Br)c2)cc1Br (repeat unit)
- glass transition temperature: 228.50 °C

Compound: *c1ccc(Cc2ccc(-n3nccc3-c3cccc(-c4ccnn4*)c3)cc2)cc1 (repeat unit)
- glass transition temperature: 212.00 °C

Compound: *Oc1ccc(C2(c3ccc(OC(=O)c4ccc(C(*)=O)cc4)c(C)c3)CCC3CCCCC3C2)cc1C (repeat unit)
- glass transition temperature: 247.00 °C

Compound: *CC(*)(CC(=O)Oc1ccccc1)C(=O)Oc1ccccc1 (repeat unit)
- glass transition temperature: 132.00 °C

Compound: *c1cccc(OCCCCCOc2cccc(N3C(=O)c4ccc(-c5cccc6c5C(=O)N(*)C6=O)cc4C3=O)c2)c1 (repeat unit)
- glass transition temperature: 168.00 °C

Compound: *CC(*)OC(=O)C(F)(F)C(F)(F)C(F)(F)F (repeat unit)
- glass transition temperature: 27.00 °C

Compound: *CC(C)CCC(C)CNC(=O)c1cc(C(=O)N*)cc(C(C)(C)C)c1 (repeat unit)
- glass transition temperature: 149.00 °C

Compound: *Oc1ccc(S(=O)(=O)c2ccc(Oc3ccc(C(c4ccc(*)cc4)(C(F)(F)F)C(F)(F)F)cc3)cc2)cc1 (repeat unit)
- glass transition temperature: 199.70 °C

— the PolyMetriX glass transition set
